Test results: patent EP4725507A1, “POLYPEPTIDE CONJUGATE, PHARMACEUTICAL COMPOSITION CONTAINING POLYPEPTIDE CONJUGATE AND USE THEREOF” (Nanjing Anji Biotechnology Co., Ltd., priority 2023, dated 2025)
≈ marks a conversion by molar mass, not a printed value. Each block holds one compound with its values, some of them ahead of it.

Assays:
[1] = test system: ASPC-1 (human pancreatic cancer cells); assay: Tumor cell proliferation inhibition (CCK8); assay type: cell-based; details: ASPC1, 72 h
Text: (§1) Human highly metastatic hepatocellular carcinoma cells HCCLM3, human highly metastatic gastric cancer cells MKN45, human gastric cancer cells BGC-823 and MGC-803, non-small cell lung cancer cells A549, human pancreatic cancer cells ASPC-1, human colon cancer cells LoVo, human ovarian cancer cells A2780, human cervical cancer cells SiHa, human malignant melanoma cells SK-mel-2 and M14, human osteosarcoma cells Saos-2, human bladder transitional cell carcinoma cells T24, human brain glioblastoma cells U87-MG, human lymphoma cells Raji, and human epidermal cancer cells A431 were selected for the experiment. Among them, HCCLM3 cells, MKN45 cells, BGC-823 cells, MGC-803 cells, A431 cells and A549 cells were provided by Nanjing Anji Biotechnology Co., Ltd., and the other cells were provided by Nanjing Ouji Pharmaceutical Technology Service Co., Ltd.
(§2) The aforementioned tumor cells were preserved in a medium containing 10% fetal bovine serum and 1% penicillin-streptomycin, and incubated at 37°C with 5% CO2 and 95% humidity. The aforementioned tumor cells were cultured in T75 flasks with an experimental cell density of 80%. The aforementioned tumor cell lines were mycoplasma-negative.
(§3) Tumor cells in the logarithmic growth phase were taken for the experiment. The cells were digested, counted, and prepared into a cell suspension with a concentration of 1×10^5 cells/mL, which was then inoculated into a 96-well plate (100 µL per well). The 96-well plate was incubated in a 37°C, 5% CO2 incubator for 24 hours. […] After incubating the plate in the incubator for 72 h, the cell morphology of each group was observed under a microscope. Then, 10 µL of CCK8 solution (Nanjing Enjing Biotechnology Co., Ltd.) was added to each well, and the plate was further incubated in the cell incubator for 4 h. After incubation, the absorbance was measured at 450 nm, and the tumor cell proliferation inhibition rate was calculated. The efficiency ratio was the ratio of the IC50 value of the free drug to that of the polypeptide conjugate. Table 1 Tumor cell proliferation inhibition rates of polypeptide conjugates

[2] = test system: A549 (non-small cell lung cancer cells); assay: Tumor cell proliferation inhibition (CCK8); assay type: cell-based; details: Homo sapiens, 72 h
Text: as §1, §2, §3

[3] = test system: U87-MG (human brain glioblastoma cells); assay: Tumor cell proliferation inhibition (CCK8); assay type: cell-based; details: U-87 MG, 72 h
Text: as §1, §2, §3

[4] = test system: SiHa (human cervical cancer cells); assay: Tumor cell proliferation inhibition (CCK8); assay type: cell-based; details: 72 h
Text: as §1, §2, §3

[5] = test system: SK-mel-2 (human malignant melanoma cells); assay: Tumor cell proliferation inhibition (CCK8); assay type: cell-based; details: 72 h
Text: as §1, §2, §3

[6] = test system: LoVo (human colon cancer cells); assay: Tumor cell proliferation inhibition (CCK8); assay type: cell-based; details: 72 h
Text: as §1, §2, §3

[7] = test system: M14 (human malignant melanoma cells); assay: Tumor cell proliferation inhibition (CCK8); assay type: cell-based; details: 72 h
Text: as §1, §2, §3

[8] = test system: HCCLM3 (human highly metastatic hepatocellular carcinoma cells); assay: Tumor cell proliferation inhibition (CCK8); assay type: cell-based; details: 72 h
Text: as §1, §2, §3

[9] = Solubility in water (HPLC, saturated solution); assay type: physicochemical; details: thermodynamic from solid, in water (ultrapure)
Experimental: 25, 50, 100, 200, 300, and 400 µL of the above stock solutions were precisely measured, added into 1 mL volumetric flasks, and diluted to the mark with methanol to obtain a series of standard solutions with concentrations of 25, 50, 100, 200, 300, and 400 µg/mL, respectively. The peak areas of the series of standard solutions were detected by HPLC (mobile phase: 0.065% TFA in water + 0.05% TFA; chromatographic column: YMC-Triart C18; wavelength: 220 nm) to construct a concentration-peak area standard curve, where the abscissa represents concentration and the ordinate represents peak area.
The peak area of the sample was detected by HPLC, and its saturation in water was calculated through the concentration-peak area standard curve. Table 6 Results of detection of solubility of polypeptide conjugates in water

[10] = test system: gastric cancer MKN45 xenograft tumors; assay: In vivo tumor-inhibitory activity of DOC-AI, MKN45 xenograft; design: species or system BALB/c nude mice; details: 6.20 µmol/Kg
Experimental: (§4) Non-small cell lung cancer A549 cells and human gastric cancer MKN-45 cells were preserved in F12-K medium containing 10% fetal bovine serum and 1% penicillin + streptomycin, and incubated at 37°C with 5% CO2 and 95% humidity. The aforementioned cells were cultured in T175 flasks with an experimental cell density of 80%. The aforementioned cell lines were mycoplasma-negative. Both A549 cells and MKN-45 cells were provided by Nanjing Anji Biotechnology Co., Ltd.
Gastric cancer MKN45 cells in the vigorous growth stage were taken and inoculated subcutaneously into the right axilla of BALB/c nude mice (Hangzhou Ziyuan Laboratory Animal Technology Co., Ltd.) under sterile conditions, with a cell inoculation amount of 1×10^7. The diameter of transplanted tumors in nude mice was measured with a vernier caliper. When the tumors grew to approximately 50 mm^3, 18 tumor-bearing nude mice with good growth status and relatively uniform tumor size were selected and divided into 3 groups, with 6 mice in each group. The administration frequency was once every 3 days, and this cycle was repeated until day 21. The anti-tumor effect in the nude mice was dynamically observed by measuring the tumor diameter. The tumor diameter was measured every other day, and the body weight of the nude mice was weighed simultaneously during the measurement of the tumor diameter. After 21 days of administration, the nude mice were euthanized, the tumor inhibition rate (%) was calculated, and the tumor masses were peeled off and weighed. Table 7 Results of Detection of In Vivo Tumor-Inhibitory Activity of DOC-AI

[11] = test system: non-small cell lung cancer A549 xenograft tumors; assay: In vivo tumor-inhibitory activity of DOC-AI, A549 xenograft; design: species or system BALB/c nude mice; details: 6.20 µmol/Kg, 4 days on, 3 days off until day 21
Experimental: Non-small cell lung cancer A549 cells in the vigorous growth stage were taken and inoculated subcutaneously into the right axilla of BALB/c nude mice (Nanjing Zhonghua Biotechnology Co., Ltd.) under sterile conditions, with a cell inoculation amount of 1×10^7. The diameter of transplanted tumors in nude mice was measured with a vernier caliper. When the tumors grew to approximately 50 mm^3, 30 tumor-bearing nude mice with good growth status and relatively uniform tumor size were selected and divided into 5 groups, with 6 mice in each group. The administration frequency was continuous administration for 4 days followed by an interval of 3 days, and this cycle was repeated until day 21. […] The tumor diameter was measured every other day, and the body weight of the nude mice was weighed simultaneously during the measurement of the tumor diameter. After 21 days of administration, the nude mice were euthanized, the tumor inhibition rate (%) was calculated, and the tumor masses were peeled off and weighed.

[12] = test system: human gastric cancer cell MKN45 xenograft tumors; assay: In vivo tumor-inhibitory activity of PTX-AI, MKN45 xenograft; design: species or system BALB/c nude mice; details: 5.28 µmol/Kg, once every 3 days, 21 days
Experimental: as §4
Human gastric cancer cells MKN-45 in the vigorous growth stage were taken and inoculated subcutaneously into the right axilla of BALB/c nude mice under sterile conditions, with a cell inoculation amount of 5×10^6. The diameter of transplanted tumors in nude mice was measured with a vernier caliper. When the tumors grew to approximately 50mm^3, […] tumor-bearing nude mice with good growth status and relatively uniform tumor size were selected, and divided into 6 groups, including 10 mice in the model group and 8 mice in each of the remaining groups. The anti-tumor effect of the test substance was dynamically observed by measuring the tumor diameter. The tumor diameter was measured every other day, and the body weight of the nude mice was weighed simultaneously during the measurement of the tumor diameter. After 21 days of administration, the nude mice were euthanized, the tumor inhibition rate (%) was calculated, and the tumor masses were peeled off and weighed. Table 3 Detection of In Vivo Tumor-Inhibitory Activity of PTX-AI

[13] = test system: T24 (human bladder transitional cell carcinoma cells); assay: Tumor cell proliferation inhibition (CCK8); assay type: cell-based; details: 72 h
Text: as §1, §2
as §3, with “h.” for “h. After incubation, the absorbance was measured at 450 nm, and the tumor cell proliferation inhibition rate was calculated. The efficiency ratio was the ratio of the IC50 value of the free drug to that of the polypeptide conjugate. Table 1 Tumor cell proliferation inhibition rates of polypeptide conjugates”

[14] = test system: Saos-2 (human osteosarcoma cells); assay: Tumor cell proliferation inhibition (CCK8); assay type: cell-based; details: 72 h
Text: as §1, §2
as §3, with “h.” for “h. After incubation, the absorbance was measured at 450 nm, and the tumor cell proliferation inhibition rate was calculated. The efficiency ratio was the ratio of the IC50 value of the free drug to that of the polypeptide conjugate. Table 1 Tumor cell proliferation inhibition rates of polypeptide conjugates”

[15] = test system: A431 (human epidermal cancer cells); assay: Tumor cell proliferation inhibition (CCK8); assay type: cell-based; details: A-431, 72 h
Text: as §1, §2
as §3, with “h.” for “h. After incubation, the absorbance was measured at 450 nm, and the tumor cell proliferation inhibition rate was calculated. The efficiency ratio was the ratio of the IC50 value of the free drug to that of the polypeptide conjugate. Table 1 Tumor cell proliferation inhibition rates of polypeptide conjugates”

[16] = test system: BGC-823 (human gastric cancer cells); assay: Tumor cell proliferation inhibition (CCK8); assay type: cell-based; details: 72 h
Text: as §1, §2
as §3, with “h.” for “h. After incubation, the absorbance was measured at 450 nm, and the tumor cell proliferation inhibition rate was calculated. The efficiency ratio was the ratio of the IC50 value of the free drug to that of the polypeptide conjugate. Table 1 Tumor cell proliferation inhibition rates of polypeptide conjugates”

[17] = test system: MGC-803 (human gastric cancer cells); assay: Tumor cell proliferation inhibition (CCK8); assay type: cell-based; details: 72 h
Text: as §1, §2
as §3, with “h.” for “h. After incubation, the absorbance was measured at 450 nm, and the tumor cell proliferation inhibition rate was calculated. The efficiency ratio was the ratio of the IC50 value of the free drug to that of the polypeptide conjugate. Table 1 Tumor cell proliferation inhibition rates of polypeptide conjugates”

[18] = test system: MKN45 (human highly metastatic gastric cancer cells); assay: Tumor cell proliferation inhibition (CCK8); assay type: cell-based; details: MKN-45, 72 h
Text: as §1, §2
as §3, with “h.” for “h. After incubation, the absorbance was measured at 450 nm, and the tumor cell proliferation inhibition rate was calculated. The efficiency ratio was the ratio of the IC50 value of the free drug to that of the polypeptide conjugate. Table 1 Tumor cell proliferation inhibition rates of polypeptide conjugates”

[19] = test system: Raji (human lymphoma cells); assay: Tumor cell proliferation inhibition (CCK8); assay type: cell-based; details: 72 h
Text: as §1, §2
as §3, with “h.” for “h. After incubation, the absorbance was measured at 450 nm, and the tumor cell proliferation inhibition rate was calculated. The efficiency ratio was the ratio of the IC50 value of the free drug to that of the polypeptide conjugate. Table 1 Tumor cell proliferation inhibition rates of polypeptide conjugates”

[20] = test system: A2780 (human ovarian cancer cells); assay: Tumor cell proliferation inhibition (CCK8); assay type: cell-based; details: 72 h
Text: as §1, §2
as §3, with “h.” for “h. After incubation, the absorbance was measured at 450 nm, and the tumor cell proliferation inhibition rate was calculated. The efficiency ratio was the ratio of the IC50 value of the free drug to that of the polypeptide conjugate. Table 1 Tumor cell proliferation inhibition rates of polypeptide conjugates”

[21] = test system: A431 (human epidermal cancer cells); assay: Tumor cell proliferation inhibition (CCK8); assay type: cell-based; details: IC50 of free drug / IC50 of polypeptide conjugate
Text: as §1, §2, §3

[22] = test system: BGC-823 (human gastric cancer cells); assay: Tumor cell proliferation inhibition (CCK8); assay type: cell-based; details: IC50 of free drug / IC50 of polypeptide conjugate
Text: as §1, §2, §3

[23] = test system: MGC-803 (human gastric cancer cells); assay: Tumor cell proliferation inhibition (CCK8); assay type: cell-based; details: IC50 of free drug / IC50 of polypeptide conjugate
Text: as §1, §2, §3

[24] = test system: MKN45 (human highly metastatic gastric cancer cells); assay: Tumor cell proliferation inhibition (CCK8); assay type: cell-based; details: IC50 of free drug / IC50 of polypeptide conjugate
Text: as §1, §2, §3

[25] = MKN45 xenograft, once every 3 days until day 21

IC50 [1]: 4.35 nM | IC50 [2]: 33.5 nM | IC50 [3]: 5.4 nM | IC50 [4]: 0.235 nM | IC50 [5]: 0.214 nM | IC50 [6]: 992 nM | IC50 [7]: 3.68 nM | IC50 [8]: 431 nM | solubility at 15 min [9]: 0.0274 µg/mL (≈ 0.0339 µM)
Structure (SMILES): CC(=O)O[C@@]12CO[C@@H]1C[C@H](O)[C@@]1(C)C(=O)[C@H](O)C3=C(C)[C@@H](OC(=O)[C@H](O)[C@@H](NC(=O)OC(C)(C)C)c4ccccc4)C[C@@](O)([C@@H](OC(=O)c4ccccc4)[C@H]21)C3(C)C [DOC, docetaxel]
body weight changes ([10]; MKN45 xenograft nude mice, during the administration period): showed weight loss | Tumor Inhibition Rate [10, 25]: 73.76±13.15% | Tumor Weight [10, 25]: 579 ± 391 mg | Final Tumor Volume ([10]; MKN45 xenograft, once every 3 days until day 21, in mm³ (unit assumed)): 256.67±391.25 | Tumor Inhibition Rate [11]: 59.55% | Tumor Weight [11]: 283.00 ± 179.83 mg

IC50 [8]: 9.4 nM | solubility at 15 min [9]: 0.12 µg/mL (≈ 0.141 µM) | IC50 [13]: 38.6 nM | IC50 [14]: 0.77 nM | IC50 [15]: 0.17 nM | IC50 [16]: 8.11 nM | IC50 [17]: 23.6 nM | IC50 [18]: 3.21 nM | IC50 [19]: 43.9 nM | IC50 [20]: 0.19 nM
Structure (SMILES): CC(=O)O[C@H]1C(=O)[C@@]2(C)[C@H]([C@H](OC(=O)c3ccccc3)[C@]3(O)C[C@H](OC(=O)[C@H](O)[C@@H](NC(=O)c4ccccc4)c4ccccc4)C(C)=C1C3(C)C)[C@]1(OC(C)=O)CO[C@@H]1C[C@@H]2O [PTX, paclitaxel]
Tumor Inhibition Rate [12]: 47.6% | Tumor Weight [12]: 0.791 ± 0.151 g | Final Tumor Volume ([12]; in mm³ (unit assumed)): 782.0±105.9

Structure (SMILES): CC(=O)O[C@H]1C(=O)[C@@]2(C)[C@H]([C@H](OC(=O)c3ccccc3)[C@]3(O)C[C@H](OC(=O)[C@H](OC(=O)CCCC(=O)N[C@@H](CCCNC(=N)N)C(=O)N[C@@H](CO)C(=O)N4CCC[C@H]4C(=O)N[C@@H](Cc4ccc(O)cc4)C(=O)N[C@@H](C)C(=O)N[C@@H](CC(N)=O)C(=O)N[C@@H](CO)C(=O)O)[C@@H](NC(=O)c4ccccc4)c4ccccc4)C(C)=C1C3(C)C)[C@]1(OC(C)=O)CO[C@@H]1C[C@@H]2O [PTX-5-AI]
Efficiency Ratios [21]: 2.13 | Efficiency Ratios [22]: 1.90 | Efficiency Ratios [23]: 1.27 | Efficiency Ratios [24]: 1.65
